Experimental data reported in patent US20210277009A1, “PRMT5 INHIBITORS” (Merck Sharp & Dohme Corp., priority 2018, published 2021).
Like-named read-outs stand apart in the source and are kept apart here.

Columns and labels:
[1] = target: T1, PRMT5-MEP50 enzyme complex (Homo sapiens, UniProt O14744); test: PRMT5-MEP50 Enzyme Methylation Assay; format: biochemical
T1 construct: 1.25 nM of Full-length (FL)-PRMT5-MEP50 enzyme complex; made in house; host or cells: baculovirus-transfected Sf21 cells
Method: PRMT5-MEP50 biochemical assay is a direct measurement of the methylation activity of the enzyme complex on a short peptide substrate derived from the N-terminus of H4 histone. Methylation experiment is performed with recombinant PRMT5-MEP50 protein complex. The assessment of inhibitory effect of small molecules is measured by tire effectiveness of the compounds to inhibit tins reaction (EC50).
In this assay, the potency (EC50) of each compound was determined from a twenty-point (1:2 serial dilution; top compound concentration of 100000 nM) titration curve using the following outlined procedure. To each well of a white ProxiPlus 384 well-plate, 100 nL of compound (1% DMSO in final assay volume of 10 μL) was dispensed, followed by the addition of 8 μL of 1× assay buffer (50 mM Bicine pH 8.0, 1 mM DTT, 0.004% Tween20, 0.01% BSA) containing 1.25 nM of Full-length (FL)-PRMT5-MEP50 enzyme complex (recombinant proteins from baculovirus-transfected Sf21 cells: FL-PRMT5; MW=[…] and FL-MEP50; MW=38614) and 1 μL of 150 μM S-(5′-Adenosyl)-L-Methionine Chloride (SAM). Plates were sealed and placed in a 37° C. humidified chamber for a 60 minutes pre-incubation with compound. Subsequently, each reaction was initiated by the addition of 1 μL 1× assay buffer containing 750 nM biotinylated H4R3(Mel) peptide. The final reaction in each well of 10 μL consists of 1.0 nM PRMT5-MEP50, 75 nM biotinylated-peptide, and […] SAM. Methylation reactions were allowed to proceed for 150 minutes in a sealed plate at 37° C. Reactions were immediately quenched by the addition of 1 μL of 5% formic acid. Plates were then frozen and shipped to SAMDITM Tech Inc. to determine the percent conversion from H4R3(Mel) to H4R3(Me2). Dose-response curves were generated by plotting percent effect (% product conversion; Y-axis) vs. Log 10 compound concentrations (X-axis). EC50 values were determined by non-linear regression according to models for either sigmoidal (4 parameters) or biphasic (7 parameters) dose-response curves.

[2] = system: symmetric dimethylation of arginine (SDMA) of PRMT5 substrates in MCF-7 cells; test: PRMT5 Cell Target Engagement (TE) Assay; format: cell-based; settings: treated for 3 days, nuclear SDMA by high content imaging, top concentration 10000 nM
Excerpt: The PRMT5 TE assay is a biomarker assay for identifying compounds that inhibit symmetric dimethylation of arginine (SDMA) of PRMT5 substrates. The following substrates have been reported for PRMT5: histone H2A and H4 R3, Histone H3 R2, Histone H3 R8, spliceosome Sm proteins, ribosomal protein RPS10, p53, FEN1, nudeoplasmin, nucleolin, EGFR and EBNA. The assay will focus on detecting symmetrically dimethylated nuclear proteins using high content imaging technology. Detection of the expression of symmetrically dimethylated nuclear proteins is through a mixture of primary rabbit monoclonal antibodies to SDMA (CST 13222), which in turn recognized by an Alexafluor 488 dye-conjugated anti-rabbit IgG secondary antibody. The IN Cell Analyzer 2200 or Opera-Phenix measures nuclear Alexafluor 488 fluorescent dye intensity that is directly related to the level of expression of symmetrically dimethylated nuclear proteins at the single cell level. Nuclear AF488 dye intensities are compared to the mean value for DMSO treated cells (MIN) to report percent of inhibition for each compound-treated well.
In this assay, the cell potency (EC50) of each compound was determined from a ten point (1:3 serial dilution; top compound concentration of 10000 nM) titration curve using the following outlined procedure. Each well of a BD falcon collagen coated black/clear bottom 384-well plate was seeded with 4000 MCF-7 cells in 30 μl media and allowed to attach for 5 h. Media is ATCC-formulated Eagle's Minimum Essential Medium, Catalog No. 30-2003. To make the complete growth medium, the following components were added to the base medium: 0.01 mg/ml human recombinant insulin; fetal bovine serum to a final concentration of 10%. Additional 30 μl of media containing 2× compounds were added to each well. Cells were treated for 3 days in 37° C. CO2 incubator. On day 3, cells were fixed with Cytofix, permeablized with 0.4% Triton-X-100/Cytofix, and washed with D-PBS without Ca/Mg. Cells were blocked with Licor Odessey blocking reagent for 1 h at room temperature, followed by incubation with anti-SDMA (1:1000) antibody at 4° C. overnight. 1° antibody was removed, followed by three washings with DPBS without Ca/Mg and 0.05% Tween20. Hoechst (5 μg/ml), Cell Mask deep stain (1:2000) and Alexa488-conjugated goat anti-rabbit IgG (2 μg/mL) was added for 1 hour at room temperature. A final washing step (three washes) was performed before sealing plate for imaging on In Cell Analyzer 2200 or Opera-Phenix. Images from analyzer were uploaded to Columbus (at WP or BOS) for image analysis. IC50 values were determined by 4 parameters robust fit of percent fluorescence units vs. (Logic) compound concentrations.

[3] = single EC50 from 4 parameters single site sigmoidal model, or first EC50 of 7 parameters biphasic model, 1.0 nM PRMT5-MEP50, H4R3(Me1) peptide, SAM, read-out: Enzyme Methylation Assay (EC50 or EC50_1)
[4] = second EC50 of 7 parameters biphasic model, read-out: Enzyme Methylation Assay (EC50_2)

T1 sequence (O14744 whole entry): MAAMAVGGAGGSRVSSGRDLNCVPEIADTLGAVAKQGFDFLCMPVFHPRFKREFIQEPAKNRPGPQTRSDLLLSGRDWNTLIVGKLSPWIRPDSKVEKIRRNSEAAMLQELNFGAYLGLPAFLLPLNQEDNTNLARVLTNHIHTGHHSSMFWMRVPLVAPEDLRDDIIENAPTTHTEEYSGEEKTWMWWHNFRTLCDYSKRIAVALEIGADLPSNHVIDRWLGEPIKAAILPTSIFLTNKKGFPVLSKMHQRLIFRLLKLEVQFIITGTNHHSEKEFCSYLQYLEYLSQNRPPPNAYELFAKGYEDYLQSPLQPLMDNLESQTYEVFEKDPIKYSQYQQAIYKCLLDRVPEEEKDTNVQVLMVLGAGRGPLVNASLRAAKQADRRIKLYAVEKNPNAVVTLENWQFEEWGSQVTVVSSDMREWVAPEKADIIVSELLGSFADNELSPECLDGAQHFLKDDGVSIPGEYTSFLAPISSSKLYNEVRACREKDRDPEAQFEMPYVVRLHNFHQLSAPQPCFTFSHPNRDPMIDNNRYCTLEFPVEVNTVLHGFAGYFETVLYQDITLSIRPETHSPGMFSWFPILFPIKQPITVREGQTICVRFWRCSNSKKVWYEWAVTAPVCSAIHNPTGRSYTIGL
T1 sequence (Q9BQA1 whole entry partner): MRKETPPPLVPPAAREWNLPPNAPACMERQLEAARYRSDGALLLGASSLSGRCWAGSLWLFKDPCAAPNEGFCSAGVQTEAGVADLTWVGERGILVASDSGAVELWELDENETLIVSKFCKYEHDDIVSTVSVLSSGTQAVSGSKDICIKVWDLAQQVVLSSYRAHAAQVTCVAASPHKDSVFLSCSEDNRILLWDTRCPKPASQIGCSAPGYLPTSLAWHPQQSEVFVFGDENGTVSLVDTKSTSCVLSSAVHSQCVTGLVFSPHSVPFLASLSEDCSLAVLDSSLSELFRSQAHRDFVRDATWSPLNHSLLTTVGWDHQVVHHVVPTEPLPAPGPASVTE

| Structure (SMILES) | EC50 [1, 3] | EC50 ([2]; Homo sapiens, MCF7, 72 h) | EC50 [2] | EC50 [1, 4] |
| --- | --- | --- | --- | --- |
| Cc1ncnc2c1ccn2[C@@H]1S[C@@H](CCc2ccc3cc4c(nc3c2)NC(C)C4)[C@@H](O)[C@H]1O (single isomer, unassigned) [Example 39, (2S,3S,4R,5R)-2-(2-((R or S)-2-methyl-2,3-dihydro-1H-pyrrolo[2,3-b]quinolin-7-yl)ethyl)-5-(4-methyl-7H-pyrrolo[2,3-d]pyrimidin-7-yl)tetrahydrothiophene-3,4-diol] | 21.9 nM | – | 2440 nM | – |
| Cc1ncnc2c1ccn2[C@@H]1S[C@@H](CCc2ccc3cc4c(nc3c2)NC(C)C4)[C@@H](O)[C@H]1O (single isomer, unassigned) [Example 40, (2S,3S,4R,5R)-2-(2-((S or R)-2-methyl-2,3-dihydro-1H-pyrrolo[2,3-b]quinolin-7-yl)ethyl)-5-(4-methyl-7H-pyrrolo[2,3-d]pyrimidin-7-yl)tetrahydrothiophene-3,4-diol] | 57.9 nM | – | – | – |
| Cc1ncnc2c1ccn2[C@@H]1SC(CCc2ccc3ccc(NCC(F)F)nc3c2)[C@@H](O)[C@H]1O (stereo in doubt) [Example 27, (2S,3S,4R,5R)-2-(2-{2-[(2,2-difluoroethyl)amino]quinolin-7-yl}ethyl)-5-(4-methyl-7H-pyrrolo[2,3-d]pyrimidin-7-yl)tetrahydrothiophene-3,4-diol] | 47.7 nM | – | 55 nM | – |
| Nc1nc2cc(OC[C@H]3S[C@@H](n4ccc5c(N)ncnc54)[C@H](O)[C@@H]3O)ccc2cc1F [Example 3, 7-[5-O-(2-amino-3-fluoroquinolin-7-yl)-4-thio-beta-D-ribofuranosyl]-7H-pyrrolo[2,3-d]pyrimidin-4-amine] | 6 nM | 596 nM | – | 902 nM |
| Nc1nc2cc(OC[C@H]3S[C@@H](n4ccc5c(Cl)ncnc54)[C@H](O)[C@@H]3O)ccc2cc1Cl [Example 5] | 26.2 nM | ≥ 10000 nM | – | – |
| C[C@]1(COc2ccc3cc(Br)c(N)nc3c2)S[C@@H](n2ccc3c(Cl)ncnc32)[C@H](O)[C@@H]1O [Example 6, (2R,3S,4R,5R)-2-(((2-amino-3-bromoquinolin-7-yl)oxy)methyl)-5-(4-chloro-7H-pyrrolo[2,3-d]pyrimidin-7-yl)-2-methyltetrahydrothiophene-3,4-diol] | 9.8 nM | 1130 nM | – | – |
| CC1(COc2ccc3cc(Br)c(N)nc3c2)SC(n2ccc3c(N)ncnc32)C(O)C1O [Example 7, (2R,3R,4R,5R)-2-(((2-amino-3-bromoquinolin-7-yl)oxy)methyl-5-(4-amino-7H-pyrrolo[2,3-d]pyrimidin-7-yl)-2-methyltetrahydrothiophene-3,4-diol] | 2.5 nM | 122 nM | – | 531 nM |
| COc1ncnc2c1ccn2[C@@H]1S[C@H](COc2ccc3ccc(NCC4CC4)nc3c2)[C@@H](O)[C@H]1O [Example 8, (2R,3S,4R,5R)-2-(((2-((cyclopropylmethyl)amino)quinolin-7-yl)oxy)methyl)-5-(4-methoxy-7H-pyrrolo[2,3-d]pyrimidin-7-yl)tetrahydrothiophene-3,4-diol] | 38300 nM | 3710 nM | – | – |
| Cc1ncnc2c1ccn2[C@@H]1S[C@H](COc2ccc3ccc(NCC4CC4)nc3c2)[C@@H](O)[C@H]1O [Example 9, (2R,3S,4R,5R)-2-(((2-((cyclopropylmethyl)amino)quinolin-7-yl)oxy)methyl)-5-(4-methyl-7H-pyrrolo[2,3-d]pyrimidin-7-yl)tetrahydrothiophene-3,4-diol] | 14 nM | 58.4 nM | – | 2540 nM |
| COc1ncnc2c1ccn2[C@@H]1S[C@H](COc2ccc3ccc(N)nc3c2)[C@@H](O)[C@H]1O [Example 10, (2R,3S,4R,5R)-2-(((2-aminoquinolin-7-yl)oxy)methyl)-5-(4-methoxy-7H-pyrrolo[2,3-d]pyrimidin-7yl)tetrahydrothiophene-3,4-diol] | 19.5 nM | 6020 nM | – | 16200 nM |

Stronger by EC50 [1, 3], values ahead:

| EC50 [1, 3] | EC50 ([2]; Homo sapiens, MCF7, 72 h) | EC50 [2] | EC50 [1, 4] | Structure (SMILES) |
| --- | --- | --- | --- | --- |
| 0.7 nM | 1.4 nM | – | – | Cc1cc2ccc(CC[C@H]3S[C@@H](n4ccc5c(C)ncnc54)[C@H](O)[C@@H]3O)cc2nc1N (single isomer, unassigned) [Example 28] |
| 0.6 nM | 0.9 nM | – | – | Cc1cc2ccc(CC[C@@H]3S[C@@H](n4ccc5c(C)ncnc54)[C@H](O)[C@@H]3O)cc2nc1N (single isomer, unassigned) [Example 29] |
| 0.3 nM | 208 nM | – | 76.7 nM | Nc1nc2cc(OC[C@H]3S[C@@H](n4ccc5c(N)ncnc54)[C@H](O)[C@@H]3O)ccc2cc1Br [Example 1, (2R,3S,4R,5R)-2-(((2-amino-3-bromoquinolin-7-yl)oxy)methyl)-5-(4-amino-7H-pyrrolo[2,3-d]pyrimidin-7-yl)tetrahydrothiophene-3,4-diol] |
| 2.2 nM | 112 nM | – | 200 nM | Nc1nc2cc(OC[C@H]3S[C@@H](n4ccc5c(N)ncnc54)[C@H](O)[C@@H]3O)ccc2cc1Cl [Example 2, 7-[5-O-(2-amino-3-chloroquinolin-7-yl)-4-thio-beta-D-ribofuranosyl]-7H-pyrrolo[2,3-d]pyrimidin-4-amine] |
| 1.2 nM | 50.5 nM | – | 569 nM | Nc1ncnc2c1ccn2[C@@H]1S[C@H](COc2ccc3ccc(NCC4CC4)nc3c2)[C@@H](O)[C@H]1O [Example 4, 7-(5-O-{2-[(cyclopropylmethyl)amino]quinolin-7-yl}-4-thio-beta-D-ribofuranosyl)-7H-pyrrolo[2,3-d]pyrimidin-4-amine] |
| 0.7 nM | 87.1 nM | – | 55 nM | Nc1ccc2ccc(OC[C@H]3S[C@@H](n4ccc5c(N)ncnc54)[C@H](O)[C@@H]3O)cc2n1 [Example 11, (2R,3R,4S,5R)-2-(4-amino-7H-pyrrolo[2,3-d]pyrimidin-7-yl)-5-(((2-aminoquinolin-7-yl)oxy)methyl)tetrahydrothiophene-3,4-diol] |
| 0.7 nM | 1.3 nM | – | – | Nc1nc2cc(CC[C@H]3S[C@@H](n4ccc5c(N)ncnc54)[C@H](O)[C@@H]3O)ccc2cc1Br [Example 12, (2R,3S,4R,5R)-2-(2-(2amino-3bromoquinolin-7-yl)ethyl)-5-(4-amino-7H-pyrrolo[2,3-d]pyrimidin-7-yl)tetrahydrothiophene-3,4-diol] |
| 0.3 nM | 3.2 nM | – | – | Nc1nc2cc(CC[C@@H]3S[C@@H](n4ccc5c(N)ncnc54)[C@H](O)[C@@H]3O)ccc2cc1Br [Example 13, (2S,3S,4R,5R)-2-(2-(2-amino-3-bromoquinolin-7-yl)ethyl)-5-(4-amino-7H-pyrrolo[2,3-d]pyrimidin-7-yl)tetrahydrothiophene-3,4-diol] |
